# Data taken from the supplement of paper PMC4862054.
# Where “and” joins values, the source holds several entries; their conditions need not be identical. Identical values can stand only once.
# What was measured:
# [1] = tested on: CAL-148; test: normalised viability (% of control), CellTiter-Blue; higher = more viable cells (about 100 = DMSO control); settings: incubation time: 72 h
# Procedure: (§1)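 DSRT, CellTiter-Blue viability, 72 h incubation. Signal is normalised to DMSO and benzethonium chloride controls. Value is the normalised response at dose 9.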
# [2] = tested on: MDA-MB-453; test: as above; settings: incubation time: 72 h
# Procedure: as §1
# [3] = tested on: CAL-51; test: as above; settings: incubation time: 72 h
# Procedure: as §1
# [4] = tested on: CAL-85-1; test: as above; settings: incubation time: 72 h
# Procedure: as §1
# [5] = tested on: HDQ-P1; test: as above; settings: incubation time: 72 h
# Procedure: as §1
# [6] = tested on: Hs578T; settings: 72 h
# Method in brief: (§2)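 To measure viability, fluorescence at 560/590 nm was read after 2.5 µl CellTiter-Blue had been added for 2 h at 37 °C. Cells from breast cancer lines had been seeded in 20 µl suspension onto 384-well plates pre-loaded with compound dissolved in 5 µl medium and kept for 72 h. EC50 comes from a fitted percent-inhibition dose-response curve censored at the highest concentration, after per-plate normalisation to vehicle and a positive kill control, Z'-factor checks, and removal of rows with zero drug sensitivity score.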
# [7] = tested on: SK-BR-3; settings: 72 h
# Method in brief: as §2
# [8] = tested on: MDA-MB-468; settings: 72 h
# Method in brief: as §2
# [9] = tested on: MDA-MB-231; settings: 72 h
# Method in brief: as §2
# [10] = tested on: HCC1937; settings: 72 h
# Method in brief: as §2
# [11] = tested on: BT-474; settings: 72 h
# Method in brief: as §2
# [12] = tested on: CAL-148; settings: 72 h
# Procedure: (§3)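 Drug sensitivity and resistance testing (DSRT) of breast cancer cell lines in 384-well plates, 5 concentrations in 10-fold dilutions over a compound-specific 10,000-fold range. After 72 h, cytotoxicity was read by CellTox Green fluorescence and viability by CellTiter-Glo luminescence (multiplexed), normalised to DMSO and benzethonium chloride controls. EC50 is the inflection point of the fitted dose-response curve (bottom asymptote free, so it can be relative for partial curves) and is censored at the highest tested concentration. Rows with DSS 0 (no meaningful response) were excluded.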
# [13] = tested on: CAL-51; settings: 72 h
# Procedure: as §3
# [14] = tested on: CAL-148; settings: 72 h; remark: listed apart in the source
# Method in brief: (§4)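 For viability and cell death testing, 384-well plates carried compound at 5 concentrations in 10-fold steps over a compound-specific 10,000-fold range, and breast cancer cell lines were seeded in 20 µl suspension. After 72 h incubation, cell death was read by CellTox Green fluorescence (485/520 nm) before viability was read by CellTiter-Glo luminescence. EC50 was fitted from the dose-response curves and censored at the top concentration. Normalisation on each plate was to 0.1 % DMSO and a positive kill control.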
# [15] = tested on: Hs578T; settings: 72 h; remark: listed apart in the source
# Procedure: as §3
# [16] = tested on: HCC1599; settings: 72 h
# Procedure: as §3
# [17] = tested on: HCC1143; settings: 72 h
# Procedure: as §3
# [18] = tested on: CAL-120; settings: 72 h
# Procedure: as §3
# [19] = tested on: BT-549; settings: 72 h
# Procedure: as §3
# [20] = tested on: MDA-MB-468; settings: 72 h; remark: listed apart in the source
# Procedure: as §3
# [21] = tested on: MDA-MB-231; settings: 72 h; remark: listed apart in the source
# Procedure: as §3
# [22] = tested on: HCC1937; settings: 72 h; remark: listed apart in the source
# Procedure: as §3
# [23] = tested on: MDA-MB-436; settings: 72 h
# Procedure: as §3
# [24] = tested on: HDQ-P1; settings: 72 h
# Procedure: as §3
# [25] = tested on: BT-474; settings: 72 h; remark: listed apart in the source
# Procedure: as §3
# [26] = tested on: HCC1599; settings: 72 h; remark: listed apart in the source
# Method in brief: as §4
# [27] = tested on: MDA-MB-453; settings: 72 h
# Method in brief: as §4
# [28] = tested on: CAL-85-1; settings: 72 h
# Method in brief: as §4
# [29] = tested on: HCC1937; settings: 72 h; remark: listed apart in the source
# Method in brief: as §4
# [30] = tested on: HDQ-P1; settings: 72 h; remark: listed apart in the source
# Method in brief: as §4
# [31] = tested on: Hs578T; test: normalised response (% of control), CellTiter-Glo; higher = more viable cells (100 = DMSO, 0 = benzethonium chloride kill control); settings: incubation time: 72 h
# Method in brief: (§5)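 Two readouts were taken after 72 h: CellTox Green fluorescence (485/520 nm) first, then CellTiter-Glo luminescence after 10 min at room temperature. Breast cancer cell lines had been seeded as 20 µl suspension into 384-well plates holding compound at 5 concentrations in 10-fold steps across a compound-specific 10,000-fold range. Each value is a normalised signal at a single concentration, with plates scaled to 0.1 % DMSO (100) and a positive kill control (0).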
# [32] = tested on: HCC1143; test: as above; settings: incubation time: 72 h
# Method in brief: as §5
# [33] = tested on: CAL-51; test: as above; settings: incubation time: 72 h
# Method in brief: as §5
# [34] = tested on: CAL-120; test: as above; settings: incubation time: 72 h
# Method in brief: as §5
# [35] = tested on: DU-4475; test: as above; settings: incubation time: 72 h
# Method in brief: as §5
# [36] = tested on: MDA-MB-436; test: as above; settings: incubation time: 72 h
# Method in brief: as §5
smiles,measurement,setting,value
C[C@]12O[C@H](C[C@]1(O)CO)n1c3ccccc3c3c4c(c5c6ccccc6n2c5c31)CNC4=O [Lestaurtinib] (1000 nM),normalised viability,[1],90.9%
same,normalised viability,[2],28.9%
same,normalised viability,[3],55%
same,normalised viability,[4],39.7%
same,normalised viability,[5],77.9%
O=C1c2c(O)ccc(O)c2C(=O)c2c(NCCNCCO)ccc(NCCNCCO)c21 [Mitoxantrone],"EC50, CellTiter-Blue viability",[6],532 nM
same,"EC50, CellTiter-Blue viability",[7],34.5 nM
same,"EC50, CellTiter-Blue viability",[8],74.8 nM
same,"EC50, CellTiter-Blue viability",[9],51.7 nM
same,"EC50, CellTiter-Blue viability",[10],2.13 nM
same,"EC50, CellTiter-Blue viability",[11],106 nM
same,"EC50, CellTox Green",[12],124 nM
same,"EC50, CellTox Green",[13],185 nM
same,"EC50, CellTiter-Glo",[14],403 nM
O=C1c2c(O)ccc(O)c2C(=O)c2c(NCCNCCO)ccc(NCCNCCO)c21 [Mitoxantrone] (1000 nM),normalised viability,[1],7.8%
same,normalised viability,[2],31%
same,normalised viability,[3],16.9%
same,normalised viability,[4],34%
same,normalised viability,[5],48.9%
Nc1ccccc1NC(=O)c1ccc(CNc2nccc(-c3cccnc3)n2)cc1 [Mocetinostat],"EC50, CellTiter-Blue viability",[6],2670 nM
same,"EC50, CellTiter-Blue viability",[7],1050 nM
same,"EC50, CellTiter-Blue viability",[8],1930 nM
same,"EC50, CellTiter-Blue viability",[9],2740 nM
same,"EC50, CellTiter-Blue viability",[10],1960 nM
same,"EC50, CellTiter-Blue viability",[11],5750 nM
same,"EC50, CellTox Green",[15],629 nM
same,"EC50, CellTox Green",[12],5350 nM
same,"EC50, CellTox Green",[16],2100 nM
same,"EC50, CellTox Green",[17],3360 nM
same,"EC50, CellTox Green",[13],1600 nM
same,"EC50, CellTox Green",[18],4510 nM
same,"EC50, CellTox Green",[19],7700 nM
same,"EC50, CellTox Green",[20],961 nM
same,"EC50, CellTox Green",[21],1720 nM
same,"EC50, CellTox Green",[22],> 10000 nM
same,"EC50, CellTox Green",[23],1340 nM
same,"EC50, CellTox Green",[24],597 nM
same,"EC50, CellTox Green",[25],6830 nM
same,"EC50, CellTiter-Glo",[14],2270 nM
same,"EC50, CellTiter-Glo",[26],3020 nM
same,"EC50, CellTiter-Glo",[27],1200 nM
same,"EC50, CellTiter-Glo",[28],2710 nM
same,"EC50, CellTiter-Glo",[29],567 nM
same,"EC50, CellTiter-Glo",[30],5520 nM
Nc1ccccc1NC(=O)c1ccc(CNc2nccc(-c3cccnc3)n2)cc1 [Mocetinostat] (10000 nM),normalised viability,[1],10%
same,normalised viability,[2],11.9%
same,normalised viability,[3],19.3%
same,normalised viability,[4],21%
same,normalised viability,[5],48.4%
COc1nc(N)nc2c1ncn2[C@@H]1O[C@H](CO)[C@@H](O)[C@@H]1O [Nelarabine],"EC50, CellTox Green",[19],> 10000 nM
COc1nc(N)nc2c1ncn2[C@@H]1O[C@H](CO)[C@@H](O)[C@@H]1O [Nelarabine] (10000 nM),normalised viability,[1],106% and 96.7%
same,normalised viability,[2],84.5% and 97.5%
same,normalised viability,[3],99.6% and 98.4%
same,normalised viability,[4],100% and 103%
same,normalised viability,[5],69.1% and 69%
Cc1ccc(Nc2nccc(N(C)c3ccc4c(C)n(C)nc4c3)n2)cc1S(N)(=O)=O [Pazopanib],"EC50, CellTox Green",[17],> 10000 nM
Cc1ccc(Nc2nccc(N(C)c3ccc4c(C)n(C)nc4c3)n2)cc1S(N)(=O)=O [Pazopanib] (10000 nM),normalised viability,[1],79.5%
same,normalised viability,[2],62.2%
same,normalised viability,[3],83.9%
same,normalised viability,[4],100%
same,normalised viability,[5],80.7%
O=C(CCBr)N1CCN(C(=O)CCBr)CC1 [Pipobroman] (10000 nM),normalised viability,[1],84.8%
same,normalised viability,[2],7.05%
same,normalised viability,[3],108%
same,normalised viability,[4],85.6%
same,normalised viability,[5],109%
C[C@]12C=CC(=O)C=C1CC[C@@H]1[C@@H]2[C@@H](O)C[C@@]2(C)[C@H]1CC[C@]2(O)C(=O)CO [Prednisolone],"EC50, CellTox Green",[24],7320 nM
C[C@]12C=CC(=O)C=C1CC[C@@H]1[C@@H]2[C@@H](O)C[C@@]2(C)[C@H]1CC[C@]2(O)C(=O)CO [Prednisolone] (10000 nM),normalised viability,[1],99.2%
same,normalised viability,[2],79.8%
same,normalised viability,[3],103%
same,normalised viability,[4],109%
same,normalised viability,[5],120%
CNC(=O)c1cc(Oc2ccc(NC(=O)Nc3ccc(Cl)c(C(F)(F)F)c3)cc2)ccn1 [Sorafenib] (1000 nM),normalised viability,[1],96.7% and 105%
same,normalised viability,[2],81% and 96.6%
same,normalised viability,[3],78.7% and 89.8%
same,normalised viability,[4],76.9% and 89.3%
CCN(CC)CCNC(=O)c1c(C)[nH]c(/C=C2\C(=O)Nc3ccc(F)cc32)c1C [Sunitinib] (1000 nM),normalised viability,[1],107% and 117%
same,normalised viability,[2],89.9% and 93.9%
same,normalised viability,[3],112% and 98.6%
same,normalised viability,[4],105% and 107%
CC[C@@]1(O)C(=O)OCc2c1cc1n(c2=O)Cc2cc3c(CN(C)C)c(O)ccc3nc2-1 [Topotecan] (100 nM),normalised response,[31],101%
same,normalised response,[32],92.9%
same,normalised response,[33],98.2%
same,normalised response,[34],95.9%
same,normalised response,[35],77.9%
same,normalised response,[36],75.2%
CC[C@@]1(O)C(=O)OCc2c1cc1n(c2=O)Cc2cc3c(CN(C)C)c(O)ccc3nc2-1 [Topotecan] (1000 nM),normalised viability,[1],13.8%
same,normalised viability,[2],44.6%
same,normalised viability,[3],15.6%
same,normalised viability,[4],37.5%
same,normalised viability,[5],77.7%
